Paper PMC4858680, “A platinum-based hybrid drug design approach to circumvent acquired resistance to molecular targeted tyrosine kinase inhibitors” (Scientific Reports, 2016)
Where two headings read alike, the source gives them in different places.

What was measured:
Assay type in all cases: binding
[1] = target: T1, JAK2(JH1domain-catalytic) (Homo sapiens, UniProt O60674); details: for Percent control: 10 μM; for remaining binding at 10 µM: read-out: Percent control
T1 construct: JAK2(JH1domain-catalytic); purchased DiscoveRx KINOMEscan

VEGFR2 = target: T2, VEGFR2 (Homo sapiens, UniProt P35968); details: for Percent control: 10 μM; for remaining binding at 10 µM: read-out: Percent control
T2 construct: purchased DiscoveRx Corporation (KINOMEscan service)

BTK = target: T3, BTK (Homo sapiens, UniProt Q06187); details: for remaining binding at 10 µM: read-out: Percent control
T3 construct: purchased DiscoveRx KINOMEscan

BMX = target: T4, BMX (Homo sapiens, UniProt P51813); details: for remaining binding at 10 µM: read-out: Percent control
T4 construct: purchased DiscoveRx KINOMEscan
T4 sequence (P51813 1-675): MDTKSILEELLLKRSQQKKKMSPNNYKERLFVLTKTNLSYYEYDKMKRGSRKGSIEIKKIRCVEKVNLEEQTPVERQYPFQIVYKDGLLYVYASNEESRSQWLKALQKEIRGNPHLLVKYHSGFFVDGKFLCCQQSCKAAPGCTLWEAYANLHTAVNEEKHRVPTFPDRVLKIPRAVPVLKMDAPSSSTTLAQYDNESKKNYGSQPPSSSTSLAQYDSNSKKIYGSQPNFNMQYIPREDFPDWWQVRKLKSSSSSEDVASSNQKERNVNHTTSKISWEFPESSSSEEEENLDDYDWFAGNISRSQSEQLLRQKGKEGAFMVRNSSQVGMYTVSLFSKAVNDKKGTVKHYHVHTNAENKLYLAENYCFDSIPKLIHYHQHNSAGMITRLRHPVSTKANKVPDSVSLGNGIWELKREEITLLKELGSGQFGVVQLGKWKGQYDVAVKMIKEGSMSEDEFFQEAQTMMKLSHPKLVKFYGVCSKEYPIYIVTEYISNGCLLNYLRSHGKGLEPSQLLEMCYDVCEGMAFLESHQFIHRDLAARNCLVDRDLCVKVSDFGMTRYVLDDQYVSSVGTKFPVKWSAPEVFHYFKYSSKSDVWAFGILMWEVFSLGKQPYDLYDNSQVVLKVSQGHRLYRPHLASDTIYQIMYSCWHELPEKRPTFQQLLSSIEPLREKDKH

FAK = target: T5, FAK (Homo sapiens, UniProt Q05397); details: for remaining binding at 10 µM: read-out: Percent control
T5 construct: purchased DiscoveRx KINOMEscan

[2] = target: T6, TYK2(JHSdomain-pseudokinase) (Homo sapiens, UniProt P29597); details: for Percent control: 10 μM; for remaining binding at 10 µM: read-out: Percent control
T6 construct: TYK2(JHSdomain-pseudokinase); purchased DiscoveRx Corporation (KINOMEscan service)

EPHB3 = target: T7, EPHB3 (Homo sapiens, UniProt P54753); details: for remaining binding at 10 µM: read-out: Percent control
T7 construct: purchased DiscoveRx KINOMEscan
T7 sequence (P54753 34-998): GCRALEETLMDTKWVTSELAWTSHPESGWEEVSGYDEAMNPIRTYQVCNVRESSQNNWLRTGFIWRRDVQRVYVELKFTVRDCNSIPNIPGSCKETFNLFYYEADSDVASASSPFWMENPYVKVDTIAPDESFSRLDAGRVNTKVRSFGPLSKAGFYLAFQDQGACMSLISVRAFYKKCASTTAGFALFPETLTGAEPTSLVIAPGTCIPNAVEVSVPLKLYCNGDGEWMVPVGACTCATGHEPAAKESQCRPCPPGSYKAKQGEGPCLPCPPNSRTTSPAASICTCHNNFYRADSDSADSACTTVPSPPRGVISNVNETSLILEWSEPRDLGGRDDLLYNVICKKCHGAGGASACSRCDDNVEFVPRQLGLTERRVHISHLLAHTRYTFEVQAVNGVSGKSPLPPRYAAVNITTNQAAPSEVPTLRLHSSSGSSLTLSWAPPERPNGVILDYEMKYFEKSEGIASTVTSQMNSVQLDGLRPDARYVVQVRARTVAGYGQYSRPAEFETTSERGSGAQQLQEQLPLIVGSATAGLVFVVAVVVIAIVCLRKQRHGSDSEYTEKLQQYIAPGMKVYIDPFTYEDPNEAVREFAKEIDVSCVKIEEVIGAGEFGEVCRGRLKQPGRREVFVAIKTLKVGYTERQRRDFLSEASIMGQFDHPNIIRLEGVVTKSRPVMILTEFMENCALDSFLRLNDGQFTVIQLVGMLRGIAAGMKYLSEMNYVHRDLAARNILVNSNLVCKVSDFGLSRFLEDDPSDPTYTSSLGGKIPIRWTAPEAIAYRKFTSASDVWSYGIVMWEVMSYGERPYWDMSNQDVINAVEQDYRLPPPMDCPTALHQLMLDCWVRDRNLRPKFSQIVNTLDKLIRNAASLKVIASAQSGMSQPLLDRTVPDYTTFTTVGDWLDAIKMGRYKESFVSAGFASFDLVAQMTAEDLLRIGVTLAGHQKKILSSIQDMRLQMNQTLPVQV

TRKB = target: T8, TRKB (Homo sapiens, UniProt Q16620); details: for remaining binding at 10 µM: read-out: Percent control
T8 construct: purchased DiscoveRx (KINOMEscan service)

FES = target: T9, FES (Homo sapiens, UniProt P07332); details: for remaining binding at 10 µM: read-out: Percent control
T9 construct: purchased DiscoveRx KINOMEscan
T9 sequence (P07332 whole entry): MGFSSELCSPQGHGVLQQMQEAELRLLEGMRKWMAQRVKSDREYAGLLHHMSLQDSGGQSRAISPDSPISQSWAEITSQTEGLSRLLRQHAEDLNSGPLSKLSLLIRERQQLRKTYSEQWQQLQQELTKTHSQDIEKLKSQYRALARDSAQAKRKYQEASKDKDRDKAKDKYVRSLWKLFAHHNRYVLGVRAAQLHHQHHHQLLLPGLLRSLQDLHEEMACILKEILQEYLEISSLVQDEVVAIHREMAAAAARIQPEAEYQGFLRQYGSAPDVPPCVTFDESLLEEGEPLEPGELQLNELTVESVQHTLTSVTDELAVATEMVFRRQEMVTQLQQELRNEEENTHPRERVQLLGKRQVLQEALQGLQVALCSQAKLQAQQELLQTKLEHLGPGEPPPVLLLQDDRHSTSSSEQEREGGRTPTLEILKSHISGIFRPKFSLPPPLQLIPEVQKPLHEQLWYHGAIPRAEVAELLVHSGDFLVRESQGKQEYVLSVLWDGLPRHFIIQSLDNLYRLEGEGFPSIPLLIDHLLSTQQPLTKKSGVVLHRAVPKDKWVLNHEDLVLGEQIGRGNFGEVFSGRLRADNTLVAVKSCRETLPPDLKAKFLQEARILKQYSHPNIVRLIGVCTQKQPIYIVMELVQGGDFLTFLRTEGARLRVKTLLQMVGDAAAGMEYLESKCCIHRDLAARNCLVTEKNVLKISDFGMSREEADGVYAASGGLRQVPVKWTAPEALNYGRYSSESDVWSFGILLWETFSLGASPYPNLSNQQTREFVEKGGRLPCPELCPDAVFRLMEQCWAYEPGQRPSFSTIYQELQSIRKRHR

T5 sequence (Q05397 whole entry): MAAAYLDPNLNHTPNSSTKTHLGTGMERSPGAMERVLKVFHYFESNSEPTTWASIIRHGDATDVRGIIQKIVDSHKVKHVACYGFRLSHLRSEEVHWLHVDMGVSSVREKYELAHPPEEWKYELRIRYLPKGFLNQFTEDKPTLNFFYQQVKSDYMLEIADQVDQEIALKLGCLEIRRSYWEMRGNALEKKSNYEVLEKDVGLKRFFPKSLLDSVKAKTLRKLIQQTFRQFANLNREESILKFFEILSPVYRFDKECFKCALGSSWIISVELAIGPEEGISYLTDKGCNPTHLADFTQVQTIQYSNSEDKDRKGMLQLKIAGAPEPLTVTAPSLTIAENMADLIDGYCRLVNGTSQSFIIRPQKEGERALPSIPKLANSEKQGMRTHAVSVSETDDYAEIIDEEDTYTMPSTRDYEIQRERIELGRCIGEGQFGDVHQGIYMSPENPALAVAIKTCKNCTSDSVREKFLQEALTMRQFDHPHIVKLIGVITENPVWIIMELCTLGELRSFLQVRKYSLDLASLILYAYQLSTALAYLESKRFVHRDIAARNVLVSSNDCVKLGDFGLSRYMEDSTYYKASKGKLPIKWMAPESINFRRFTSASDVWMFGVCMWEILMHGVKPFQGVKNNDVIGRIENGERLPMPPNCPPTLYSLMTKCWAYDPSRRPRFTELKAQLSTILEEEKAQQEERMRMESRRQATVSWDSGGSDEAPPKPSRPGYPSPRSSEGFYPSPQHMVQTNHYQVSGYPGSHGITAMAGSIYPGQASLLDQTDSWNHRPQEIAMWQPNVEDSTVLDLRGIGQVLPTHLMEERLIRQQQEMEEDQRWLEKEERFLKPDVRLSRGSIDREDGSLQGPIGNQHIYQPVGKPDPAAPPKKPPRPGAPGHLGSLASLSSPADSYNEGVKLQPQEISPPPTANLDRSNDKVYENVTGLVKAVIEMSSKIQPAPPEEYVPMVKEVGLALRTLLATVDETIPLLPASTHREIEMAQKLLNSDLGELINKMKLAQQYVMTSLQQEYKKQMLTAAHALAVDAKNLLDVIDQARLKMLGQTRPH
T6 sequence (P29597 589-875 limits assumed): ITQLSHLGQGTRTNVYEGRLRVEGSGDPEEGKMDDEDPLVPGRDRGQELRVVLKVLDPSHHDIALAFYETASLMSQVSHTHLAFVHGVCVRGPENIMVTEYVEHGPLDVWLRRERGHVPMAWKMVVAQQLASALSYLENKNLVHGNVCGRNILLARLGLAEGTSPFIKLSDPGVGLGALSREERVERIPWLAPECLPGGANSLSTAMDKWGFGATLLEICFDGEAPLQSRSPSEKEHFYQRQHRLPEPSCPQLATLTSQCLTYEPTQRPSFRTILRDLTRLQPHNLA
T8 sequence (Q16620 32-822): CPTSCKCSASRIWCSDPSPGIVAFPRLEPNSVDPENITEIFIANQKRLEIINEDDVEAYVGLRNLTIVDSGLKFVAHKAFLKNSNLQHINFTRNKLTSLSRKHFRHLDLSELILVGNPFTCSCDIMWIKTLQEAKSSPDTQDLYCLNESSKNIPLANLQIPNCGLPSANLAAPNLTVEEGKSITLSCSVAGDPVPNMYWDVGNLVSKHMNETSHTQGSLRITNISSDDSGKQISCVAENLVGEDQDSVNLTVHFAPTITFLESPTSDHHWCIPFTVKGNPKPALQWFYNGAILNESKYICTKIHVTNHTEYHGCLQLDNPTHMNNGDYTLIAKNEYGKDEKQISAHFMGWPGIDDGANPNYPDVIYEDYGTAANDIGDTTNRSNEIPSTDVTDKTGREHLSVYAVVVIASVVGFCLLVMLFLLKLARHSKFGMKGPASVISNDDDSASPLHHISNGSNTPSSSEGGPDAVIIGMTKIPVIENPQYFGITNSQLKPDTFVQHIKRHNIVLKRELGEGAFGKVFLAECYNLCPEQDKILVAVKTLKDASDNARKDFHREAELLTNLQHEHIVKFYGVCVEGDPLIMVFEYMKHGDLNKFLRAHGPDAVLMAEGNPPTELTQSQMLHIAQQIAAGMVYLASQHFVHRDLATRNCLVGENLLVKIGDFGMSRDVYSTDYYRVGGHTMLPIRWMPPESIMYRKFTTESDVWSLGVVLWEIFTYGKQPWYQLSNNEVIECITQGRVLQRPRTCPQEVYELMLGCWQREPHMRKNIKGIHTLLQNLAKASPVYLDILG
T2 sequence (P35968 20-1356): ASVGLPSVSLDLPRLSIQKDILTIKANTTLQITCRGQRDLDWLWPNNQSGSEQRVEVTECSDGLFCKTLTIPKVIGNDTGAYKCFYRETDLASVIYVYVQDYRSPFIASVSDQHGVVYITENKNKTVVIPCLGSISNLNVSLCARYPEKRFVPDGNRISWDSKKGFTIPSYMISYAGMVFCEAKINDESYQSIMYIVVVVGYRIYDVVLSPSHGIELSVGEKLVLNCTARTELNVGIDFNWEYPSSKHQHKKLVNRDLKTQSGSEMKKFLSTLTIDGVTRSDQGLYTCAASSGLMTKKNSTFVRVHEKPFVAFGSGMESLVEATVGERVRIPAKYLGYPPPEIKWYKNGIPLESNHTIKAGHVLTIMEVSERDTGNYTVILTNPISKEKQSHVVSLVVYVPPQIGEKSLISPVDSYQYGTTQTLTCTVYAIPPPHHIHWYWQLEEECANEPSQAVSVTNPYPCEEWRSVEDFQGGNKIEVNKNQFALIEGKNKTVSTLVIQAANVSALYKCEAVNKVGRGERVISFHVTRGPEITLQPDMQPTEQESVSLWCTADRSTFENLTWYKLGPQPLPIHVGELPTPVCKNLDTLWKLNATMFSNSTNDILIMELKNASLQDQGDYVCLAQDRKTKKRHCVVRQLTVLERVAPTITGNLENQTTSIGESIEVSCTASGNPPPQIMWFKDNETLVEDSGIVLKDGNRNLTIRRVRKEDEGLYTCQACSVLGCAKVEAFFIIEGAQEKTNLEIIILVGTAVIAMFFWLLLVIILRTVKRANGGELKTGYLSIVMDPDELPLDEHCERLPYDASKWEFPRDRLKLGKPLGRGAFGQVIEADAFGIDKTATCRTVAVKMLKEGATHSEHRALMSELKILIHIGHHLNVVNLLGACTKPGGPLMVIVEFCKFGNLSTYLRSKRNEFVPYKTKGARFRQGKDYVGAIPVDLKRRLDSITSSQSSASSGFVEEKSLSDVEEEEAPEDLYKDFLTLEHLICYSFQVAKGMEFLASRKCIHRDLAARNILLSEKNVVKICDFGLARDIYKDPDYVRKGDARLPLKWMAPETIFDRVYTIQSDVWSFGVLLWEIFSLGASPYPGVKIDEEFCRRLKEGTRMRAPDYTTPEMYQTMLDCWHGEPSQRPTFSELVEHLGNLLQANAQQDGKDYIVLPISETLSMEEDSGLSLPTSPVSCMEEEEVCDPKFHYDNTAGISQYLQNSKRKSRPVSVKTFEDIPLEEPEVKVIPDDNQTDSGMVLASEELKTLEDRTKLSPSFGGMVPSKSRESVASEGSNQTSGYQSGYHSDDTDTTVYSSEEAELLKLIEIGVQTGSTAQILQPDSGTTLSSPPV
T3 sequence (Q06187 whole entry): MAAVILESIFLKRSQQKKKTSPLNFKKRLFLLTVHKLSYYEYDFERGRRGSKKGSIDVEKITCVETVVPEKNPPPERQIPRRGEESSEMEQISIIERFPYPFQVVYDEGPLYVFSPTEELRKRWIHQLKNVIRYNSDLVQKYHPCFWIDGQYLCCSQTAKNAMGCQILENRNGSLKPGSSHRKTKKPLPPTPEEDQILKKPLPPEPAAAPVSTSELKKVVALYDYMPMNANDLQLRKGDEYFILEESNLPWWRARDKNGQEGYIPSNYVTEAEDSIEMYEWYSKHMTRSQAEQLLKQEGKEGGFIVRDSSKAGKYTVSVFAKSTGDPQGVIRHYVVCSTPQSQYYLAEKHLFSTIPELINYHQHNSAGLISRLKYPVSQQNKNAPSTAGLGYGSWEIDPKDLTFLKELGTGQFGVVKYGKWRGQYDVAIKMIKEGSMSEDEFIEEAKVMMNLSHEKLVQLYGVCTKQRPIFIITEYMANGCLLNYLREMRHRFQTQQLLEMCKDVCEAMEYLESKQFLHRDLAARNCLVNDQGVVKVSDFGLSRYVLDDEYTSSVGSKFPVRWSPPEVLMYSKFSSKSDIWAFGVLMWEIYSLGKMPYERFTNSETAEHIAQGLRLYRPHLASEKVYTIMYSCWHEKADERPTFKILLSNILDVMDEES

SMILES | Percent control [1] | Percent control (VEGFR2) | Percent control (BTK; BTK, 10 μM) | Percent control (BMX; BMX, 10 μM) | Percent control (FAK; FAK, 10 μM) | Percent control [2] | Percent control (EPHB3; EPHB3, 10 μM) | Percent control (TRKB; TRKB, 10 μM) | Percent control (FES; FES, 10 μM) | remaining binding at 10 µM [1] | remaining binding at 10 µM (VEGFR2) | remaining binding at 10 µM [2] | remaining binding at 10 µM (BTK; BTK, 10 μM) | other results
Cc1ccc(NC(=O)c2ccc(CN3CCN(C)CC3)cc2)cc1Nc1nccc(-c2cccnc2)[n+]1[Pt-2]1([Cl])[NH2+]C2CCCCC2[NH2+]1 (stereo not drawn) [1b, oxaliplatin-imatinib] | 100% | 100% | 100% | 98% | 90% | 100% | 87% | 100% | 96% |  |  |  |  | 
C#Cc1cccc(Nc2c3cc(OCCOC)c(OCCOC)cc3nc[n+]2[Pt@SP2-2]([NH3+])([NH3+])[Cl])c1 [2a, cisplatin-erlotinib] | 46% | 98% | 87% | 100% | 94% | 100% | 88% | 95% | 98% |  |  |  |  | 
COc1cc2c(Nc3ccc(Br)cc3F)[n+]([Pt-2]3([Cl])[NH2+]C4CCCCC4[NH2+]3)cnc2cc1OCC1CCN(C)CC1 (stereo not drawn) [3b, oxaliplatin-vandetanib] | 100% | 3.2% | 37% | 92% | 86% | 100% | 100% | 72% | 100% |  |  |  |  | 
C#Cc1cccc(Nc2ncnc3cc(OCCOC)c(OCCOC)cc23)c1 [Erlotinib] |  |  |  |  |  |  |  |  |  | 27% | 36.3% | 19.4% |  | remaining binding at 10 µM (BTK): 100%; remaining binding at 10 µM (BMX): 100%; remaining binding at 10 µM (FAK): 100%; remaining binding at 10 µM (EPHB3): 100%; remaining binding at 10 µM (TRKB): 100%; remaining binding at 10 µM (FES): 100%
Cc1ccc(NC(=O)c2ccc(CN3CCN(C)CC3)cc2)cc1Nc1nccc(-c2cccnc2)n1 [Imatinib, reference compound] |  | 100% |  | 100% | 100% |  | 100% | 100% | 100% | 100% |  | 46.5% | 100% | 
COc1cc2c(Nc3ccc(Br)cc3F)ncnc2cc1OCC1CCN(C)CC1 [Vandetanib, reference compound] |  |  |  |  |  |  |  |  |  | 100% | 7.6% | 100% | 14.5% | remaining binding at 10 µM (BMX; BMX, 10 μM): 100%; remaining binding at 10 µM (FAK; FAK, 10 μM): 100%; remaining binding at 10 µM (EPHB3; EPHB3, 10 μM): 100%; remaining binding at 10 µM (TRKB; TRKB, 10 μM): 100%; remaining binding at 10 µM (FES; FES, 10 μM): 100%
